Active and inactive are the calls of the source. The calls are words filed in the database; no cut-off is given here.
Experiments:
Cytochrome P450 3A4 = Cytochrome P450 3A4 (Homo sapiens, UniProt P08684); assay: Inhibition of CYP3A4T in human liver microsomes using midazolam as substrate incubated for 10 mins in presence of NADPH by LC-MS/MS analysis; format: ADME
Cytochrome P450 1A2 = Cytochrome P450 1A2 (Homo sapiens, UniProt P05177); assay: Inhibition of CYP1A2 in human liver microsomes using phenacetin as substrate incubated for 10 mins in presence of NADPH by LC-MS/MS analysis; format: ADME
[1] = Drug concentration in ICR mouse plasma at 15 mg/kg, po after 2 hrs; format: ADME, organism-based
[2] = Toxicity in SFP CD-1 mouse assessed as pathological change in visceral organs at 10 to 1280 mg/kg, po administered for 7 days by H and E staining based assay; format: organism-based; settings: in vivo, 168 h, dose 10-1280 mg/kg, time 7 day
[3] = Toxicity in SFP CD-1 mouse assessed as change in temperature at 10 to 1280 mg/kg, po administered for 7 days; format: organism-based; settings: in vivo, 168 h, dose 10-1280 mg/kg, time 7 day
[4] = Toxicity in SFP CD-1 mouse assessed as change in animal color at 10 to 1280 mg/kg, po administered for 7 days; format: organism-based; settings: in vivo, 168 h, dose 10-1280 mg/kg, time 7 day
[5] = Toxicity in SFP CD-1 mouse assessed as change in behavior at 10 to 1280 mg/kg, po administered for 7 days; format: organism-based; settings: in vivo, 168 h, dose 10-1280 mg/kg, time 7 day
[6] = Toxicity in SFP CD-1 mouse assessed as change in body weight at 10 to 1280 mg/kg, po administered for 7 days; format: organism-based; settings: in vivo, 168 h, dose 10-1280 mg/kg, time 7 day
[7] = Cmax in Sprague-Dawley rat at 5 mg/kg, po measured upto 24 hrs by LC/MS/MS analysis; format: ADME, organism-based; design: route oral, dose 5 mg/kg, time <=24; settings: in vivo
[8] = Half life in Sprague-Dawley rat at 5 mg/kg, po measured upto 24 hrs by LC/MS/MS analysis; format: ADME, organism-based; settings: in vivo
[9] = Volume of distribution in Sprague-Dawley rat at 5 mg/kg, iv measured upto 24 hrs by LC/MS/MS analysis; format: ADME, organism-based; settings: in vivo
[10] = Clearance in Sprague-Dawley rat at 5 mg/kg, iv measured upto 24 hrs by LC/MS/MS analysis; format: ADME, organism-based; settings: in vivo
[11] = Half life in Sprague-Dawley rat at 5 mg/kg, iv measured upto 24 hrs by LC/MS/MS analysis; format: ADME, organism-based; settings: in vivo
[12] = target: T1, Tyrosine-protein kinase BTK (Homo sapiens, UniProt Q06187); assay: Inhibition of full-length N-terminal GST tagged BTK (2 to 659 residues) (unknown origin) expressed in Sf21 insect cells using NH2-ETVYSEVRK-biotin as substrate preincubated for 1 hr followed by ATP addition and measured after 2 hrs by ELISA
[13] = target: Epidermal growth factor receptor (Homo sapiens, UniProt P00533); assay: Inhibition of N-terminal DYKDDDD-tagged EGFR (669 to 1210 residues) (unknown origin) expressed in Sf21 insect cells using NH2-ETVYSEVRK-biotin as substrate preincubated for 1 hr followed by ATP addition and measured after 2 hrs by ELISA
[14] = target: Tyrosine-protein kinase BTK (Homo sapiens, UniProt Q06187, C481S); assay: Inhibition of BTK C481S mutant (unknown origin)
[15] = target: Tyrosine-protein kinase Tec (Homo sapiens) (UniProt P42680); assay: Inhibition of TEC (unknown origin) at 1 uM relative to control
[16] = target: Tyrosine-protein kinase Tec (Homo sapiens, UniProt P42680); assay: Inhibition of TEC (unknown origin)
[17] = target: Tyrosine-protein kinase Fyn (Homo sapiens, UniProt P06241); assay: Inhibition of FYN (unknown origin)
Rec1 = assay: Antiproliferative activity against human REC-1 cells assessed as reduction in cell viability incubated for 72 hrs by celltiter-glo assay; settings: Rec1, 72 h
NAMALVA = assay: Antiproliferative activity against human NAMALWA cells assessed as reduction in cell viability incubated for 72 hrs by celltiter-glo assay
TMD8 [18] = assay: Induction of cell cycle arrest in human TMD8 cells assessed as accumulation of cells at G1 phase at 3 nM incubated for 48 hrs by PI staining based flow cytometric analysis (reference value: 57.66 %); format: functional
TMD8 [19] = assay: Induction of cell cycle arrest in human TMD8 cells assessed as accumulation of cells at G1 phase at 30 nM incubated for 48 hrs by PI staining based flow cytometric analysis (reference value: 57.66 %); format: functional
TMD8 [20] = assay: Induction of cell cycle arrest in human TMD8 cells assessed as accumulation of cells at G1 phase at 300 nM incubated for 48 hrs by PI staining based flow cytometric analysis (reference value: 57.66 %); format: functional
TMD8 [21] = assay: Induction of cell cycle arrest in human TMD8 cells assessed as accumulation of cells at S phase at 300 nM incubated for 48 hrs by PI staining based flow cytometric analysis (reference value: 37.42 %); format: functional
TMD8 [22] = assay: Induction of apoptosis in human TMD8 cells at 300 nM incubated for 72 hrs by Annexin V-FITC/PI staining based flow cytometric analysis (reference value: 13.4 %); format: functional
TMD8 [23] = assay: Induction of apoptosis in human TMD8 cells at 3000 nM incubated for 72 hrs by Annexin V-FITC/PI staining based flow cytometric analysis (reference value: 13.4 %); format: functional
[24] = target: T1, Tyrosine-protein kinase BTK; assay: Inhibition of BTK in human TMD8 cells assessed as reduction in PLCgamma2 phosphorylation at Tyr 1217 residue at 0 to 1000 nM after 4 hrs by Western blot analysis; format: cell-based; settings: dose 0-1000 nM
[25] = target: T1, Tyrosine-protein kinase BTK; assay: Inhibition of BTK in human TMD8 cells assessed as reduction in BTK autophosphorylation at Tyr 223 residue after 4 hrs by Western blot analysis; format: cell-based
[26] = Cmax in CB-17 SCID mouse xenografted with human TMD8 cells at 7.5 mg/kg, po bid administered for 21 days; format: ADME, organism-based; design: route oral, dose 7.5 mg/kg, time 21 day; settings: in vivo
TMD8 [27] = assay: Antitumor activity against human TMD8 cells xenografted in CB-17 SCID nude mouse assessed as tumor growth inhibition at 3.75 mg/kg, po bid administered for 21 days; format: functional; settings: 504 h, time 21 day, read-out: TGI
TMD8 [28] = assay: Antitumor activity against human TMD8 cells xenografted in CB-17 SCID nude mouse assessed as tumor growth inhibition at 7.5 mg/kg, po bid administered for 21 days; format: functional; settings: 504 h, time 21 day, read-out: TGI
TMD8 [29] = assay: Antitumor activity against human TMD8 cells xenografted in CB-17 SCID nude mouse assessed as tumor growth inhibition at 15 mg/kg, po bid administered for 21 days; format: functional; settings: 504 h, time 21 day, read-out: TGI

T1 sequence (Q06187 whole entry, the tested form may be a part): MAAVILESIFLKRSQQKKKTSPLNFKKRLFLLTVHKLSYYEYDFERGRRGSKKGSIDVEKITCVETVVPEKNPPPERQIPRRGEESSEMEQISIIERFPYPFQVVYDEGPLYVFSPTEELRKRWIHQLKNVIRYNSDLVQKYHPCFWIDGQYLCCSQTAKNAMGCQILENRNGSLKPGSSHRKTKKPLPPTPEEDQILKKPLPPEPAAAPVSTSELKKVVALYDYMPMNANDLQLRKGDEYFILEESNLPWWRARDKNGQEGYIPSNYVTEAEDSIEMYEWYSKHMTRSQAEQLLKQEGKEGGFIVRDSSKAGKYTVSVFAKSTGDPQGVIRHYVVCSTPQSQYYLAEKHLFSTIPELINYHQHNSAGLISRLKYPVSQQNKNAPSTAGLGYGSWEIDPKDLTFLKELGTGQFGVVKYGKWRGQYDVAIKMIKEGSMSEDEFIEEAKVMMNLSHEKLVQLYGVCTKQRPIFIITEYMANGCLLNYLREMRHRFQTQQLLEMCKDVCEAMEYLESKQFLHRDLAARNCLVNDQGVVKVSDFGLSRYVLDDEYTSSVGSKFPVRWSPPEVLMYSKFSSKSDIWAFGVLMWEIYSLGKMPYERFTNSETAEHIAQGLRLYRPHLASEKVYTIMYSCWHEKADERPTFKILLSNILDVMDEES
Cytochrome P450 1A2, sequence (P05177 whole entry): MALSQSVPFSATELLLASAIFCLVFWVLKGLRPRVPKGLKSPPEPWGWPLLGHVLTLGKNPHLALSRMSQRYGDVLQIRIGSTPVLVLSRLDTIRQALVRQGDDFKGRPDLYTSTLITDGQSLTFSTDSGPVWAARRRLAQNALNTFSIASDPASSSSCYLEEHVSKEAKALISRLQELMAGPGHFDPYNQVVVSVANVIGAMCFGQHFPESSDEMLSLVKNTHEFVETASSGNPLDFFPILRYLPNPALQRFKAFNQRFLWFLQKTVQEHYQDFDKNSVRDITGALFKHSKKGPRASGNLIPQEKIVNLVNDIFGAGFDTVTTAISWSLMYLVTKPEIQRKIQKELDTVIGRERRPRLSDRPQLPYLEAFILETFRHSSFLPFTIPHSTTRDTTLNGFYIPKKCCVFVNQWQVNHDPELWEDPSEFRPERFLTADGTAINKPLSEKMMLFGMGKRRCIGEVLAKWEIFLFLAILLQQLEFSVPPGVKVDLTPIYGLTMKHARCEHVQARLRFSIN
Tyrosine-protein kinase BTK (Homo sapiens, UniProt Q06187, C481S), sequence (Q06187 2-659 C481S limits assumed): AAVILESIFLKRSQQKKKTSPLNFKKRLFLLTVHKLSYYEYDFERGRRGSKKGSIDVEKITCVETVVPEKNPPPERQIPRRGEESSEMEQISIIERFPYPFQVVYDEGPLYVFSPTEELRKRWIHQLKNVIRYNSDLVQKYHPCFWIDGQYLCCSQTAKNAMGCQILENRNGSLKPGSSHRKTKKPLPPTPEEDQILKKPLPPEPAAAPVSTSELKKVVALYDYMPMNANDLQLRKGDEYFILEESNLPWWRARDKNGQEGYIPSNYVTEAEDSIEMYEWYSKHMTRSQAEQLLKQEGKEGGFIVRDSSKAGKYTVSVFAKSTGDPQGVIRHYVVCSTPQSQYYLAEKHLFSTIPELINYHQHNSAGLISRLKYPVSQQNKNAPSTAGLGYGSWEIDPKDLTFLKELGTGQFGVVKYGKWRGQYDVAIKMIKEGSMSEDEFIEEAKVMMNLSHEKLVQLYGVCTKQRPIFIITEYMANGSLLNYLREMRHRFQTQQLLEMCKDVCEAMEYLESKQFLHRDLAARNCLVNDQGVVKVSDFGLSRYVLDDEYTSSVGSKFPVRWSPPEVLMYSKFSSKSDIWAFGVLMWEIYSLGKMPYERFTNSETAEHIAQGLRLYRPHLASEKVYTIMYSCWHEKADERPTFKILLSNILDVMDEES
Cytochrome P450 3A4, sequence (P08684 whole entry): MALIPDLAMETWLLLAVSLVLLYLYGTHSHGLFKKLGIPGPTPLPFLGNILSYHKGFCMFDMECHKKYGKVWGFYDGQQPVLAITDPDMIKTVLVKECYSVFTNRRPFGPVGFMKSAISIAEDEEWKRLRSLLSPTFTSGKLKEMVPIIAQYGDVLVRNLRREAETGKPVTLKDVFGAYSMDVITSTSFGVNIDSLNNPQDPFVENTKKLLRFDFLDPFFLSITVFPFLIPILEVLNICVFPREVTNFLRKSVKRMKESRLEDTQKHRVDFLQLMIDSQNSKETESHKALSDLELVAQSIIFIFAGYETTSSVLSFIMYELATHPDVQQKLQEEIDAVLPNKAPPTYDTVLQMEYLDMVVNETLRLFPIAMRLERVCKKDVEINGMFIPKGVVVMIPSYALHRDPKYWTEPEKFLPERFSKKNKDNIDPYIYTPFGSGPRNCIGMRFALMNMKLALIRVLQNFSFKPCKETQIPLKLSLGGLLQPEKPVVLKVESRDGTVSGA
Tyrosine-protein kinase Fyn, sequence (P06241 whole entry): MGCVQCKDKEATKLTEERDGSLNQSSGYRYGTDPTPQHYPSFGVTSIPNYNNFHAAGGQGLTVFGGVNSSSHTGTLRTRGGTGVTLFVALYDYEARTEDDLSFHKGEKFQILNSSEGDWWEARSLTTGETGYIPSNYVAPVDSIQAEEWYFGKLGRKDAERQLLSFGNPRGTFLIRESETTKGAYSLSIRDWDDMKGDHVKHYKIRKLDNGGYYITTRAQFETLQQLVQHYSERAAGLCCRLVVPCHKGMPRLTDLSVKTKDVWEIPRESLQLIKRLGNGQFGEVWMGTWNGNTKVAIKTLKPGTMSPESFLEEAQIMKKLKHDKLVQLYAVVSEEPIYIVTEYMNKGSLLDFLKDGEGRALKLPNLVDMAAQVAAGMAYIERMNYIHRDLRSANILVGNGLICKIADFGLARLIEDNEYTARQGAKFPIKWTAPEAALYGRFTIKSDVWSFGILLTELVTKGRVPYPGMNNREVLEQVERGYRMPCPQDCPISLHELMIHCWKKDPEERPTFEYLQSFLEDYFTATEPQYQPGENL
Epidermal growth factor receptor, sequence (P00533 whole entry, the tested form may be a part): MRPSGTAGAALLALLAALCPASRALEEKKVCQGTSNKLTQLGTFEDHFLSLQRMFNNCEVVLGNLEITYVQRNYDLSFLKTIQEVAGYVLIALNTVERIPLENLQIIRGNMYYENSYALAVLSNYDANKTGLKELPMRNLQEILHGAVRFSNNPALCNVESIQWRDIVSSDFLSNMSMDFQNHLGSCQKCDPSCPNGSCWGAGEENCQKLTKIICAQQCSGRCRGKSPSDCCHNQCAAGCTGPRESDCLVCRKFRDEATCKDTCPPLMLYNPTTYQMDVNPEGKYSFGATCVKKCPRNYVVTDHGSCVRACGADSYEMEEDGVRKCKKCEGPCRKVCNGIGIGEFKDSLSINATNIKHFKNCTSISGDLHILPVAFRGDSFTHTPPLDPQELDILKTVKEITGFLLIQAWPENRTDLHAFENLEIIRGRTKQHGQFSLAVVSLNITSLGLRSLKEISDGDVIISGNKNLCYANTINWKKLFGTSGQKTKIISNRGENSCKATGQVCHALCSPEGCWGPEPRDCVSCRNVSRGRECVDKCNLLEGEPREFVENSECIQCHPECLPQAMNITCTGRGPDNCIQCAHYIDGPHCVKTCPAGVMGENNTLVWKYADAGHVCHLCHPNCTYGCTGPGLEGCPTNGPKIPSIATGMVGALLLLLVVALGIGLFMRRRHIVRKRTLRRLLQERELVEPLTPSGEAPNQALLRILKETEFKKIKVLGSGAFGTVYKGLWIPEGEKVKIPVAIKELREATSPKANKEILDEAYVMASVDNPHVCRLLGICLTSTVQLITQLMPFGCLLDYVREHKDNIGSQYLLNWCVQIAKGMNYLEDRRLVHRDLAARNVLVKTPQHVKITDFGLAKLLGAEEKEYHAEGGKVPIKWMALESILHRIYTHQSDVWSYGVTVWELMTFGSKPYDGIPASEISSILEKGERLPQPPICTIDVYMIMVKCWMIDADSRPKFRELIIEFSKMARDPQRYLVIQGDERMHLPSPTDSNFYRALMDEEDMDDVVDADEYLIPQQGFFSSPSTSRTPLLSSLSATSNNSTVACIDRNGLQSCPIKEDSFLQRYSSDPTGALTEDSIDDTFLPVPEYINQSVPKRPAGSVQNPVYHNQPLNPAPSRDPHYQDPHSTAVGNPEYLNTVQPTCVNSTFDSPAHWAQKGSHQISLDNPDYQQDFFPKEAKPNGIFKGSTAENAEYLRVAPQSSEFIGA
Tyrosine-protein kinase Tec, sequence (P42680 whole entry): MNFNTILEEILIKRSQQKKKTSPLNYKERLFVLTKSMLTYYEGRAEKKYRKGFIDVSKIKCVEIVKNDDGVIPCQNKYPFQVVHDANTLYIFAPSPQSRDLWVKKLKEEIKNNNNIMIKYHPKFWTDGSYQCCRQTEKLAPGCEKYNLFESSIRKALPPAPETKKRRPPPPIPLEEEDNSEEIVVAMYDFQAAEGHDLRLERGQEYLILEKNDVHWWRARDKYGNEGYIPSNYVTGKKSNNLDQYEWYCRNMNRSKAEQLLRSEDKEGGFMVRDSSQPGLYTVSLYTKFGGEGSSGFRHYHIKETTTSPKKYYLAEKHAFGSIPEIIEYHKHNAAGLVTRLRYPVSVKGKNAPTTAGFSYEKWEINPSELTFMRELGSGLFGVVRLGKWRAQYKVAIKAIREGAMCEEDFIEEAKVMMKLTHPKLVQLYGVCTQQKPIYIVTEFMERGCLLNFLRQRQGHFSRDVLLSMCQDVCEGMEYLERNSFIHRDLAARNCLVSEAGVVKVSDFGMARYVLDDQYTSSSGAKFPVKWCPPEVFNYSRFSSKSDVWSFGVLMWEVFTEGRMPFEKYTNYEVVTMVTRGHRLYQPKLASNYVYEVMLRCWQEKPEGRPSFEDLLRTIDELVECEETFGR
Tyrosine-protein kinase Tec (Homo sapiens), sequence (P42680 whole entry): as above

For C=CC(=O)N1CCCC[C@H]1c1nc(-c2ccc(C(=O)Nc3cc(C(F)(F)F)ccn3)cc2)c(C(N)=O)n1N, the IC50 (Cytochrome P450 3A4) was over 10000 nM, the IC50 (Cytochrome P450 1A2) was over 10000 nM and the concentration at 2 h [1] was 640 nM. The Activity [2] was “Non-Toxic”, the Activity [3] was “Non-Toxic” and the Activity [4] was “Non-Toxic”. For the same compound, the Activity [5] was “Non-Toxic”, the Activity [6] was “Non-Toxic” and the Cmax [7] was 501 ng/mL. The half-life [8] was 1.35 h, the Vd [9] was 1.5 L/kg and the clearance [10] was 13.4 mL/min/kg. It also gave a half-life [11] of 1.32 h, an IC50 [12] of 2.7 nM and an IC50 [13] of 433 nM. The IC50 [14] was over 10000 nM, the inhibition [15] was over 80% and the IC50 [16] was 15.7 nM. For the same compound, the “inhibition (INH)” value [17] was “Not Active”, the IC50 (Rec1) was 35 nM and the IC50 (NAMALVA) was 4100 nM. For the same compound, the Activity (TMD8 [18]) was 54.21%, the Activity (TMD8 [19]) was 84.36% and the Activity (TMD8 [20]) was 93.84%. For the same compound, the Activity (TMD8 [21]) was 2.37%, the Activity (TMD8 [22]) was 34.1% and the Activity (TMD8 [23]) was 68.4%. The inhibition [24] was “Active”, the IC50 [25] was 8.96 nM and the Cmax [26] was 1000 ng/mL. The inhibition in vivo at 3.75 mg/kg (TMD8 [27]) was 81%, the inhibition in vivo at 7.5 mg/kg (TMD8 [28]) was 96% and the inhibition in vivo at 15 mg/kg (TMD8 [29]) was 106%.
